Data published in patent publication US20240343694A1, “PYRIMIDINE DERIVATIVE, METHOD FOR PREPARING SAME, AND PHARMACEUTICAL COMPOSITION FOR PREVENTING OR TREATING CANCER COMPRISING SAME AS ACTIVE INGREDIENT” (KOREA RESERARCH INSTITUTE OF CHEMICAL TECHNOLOGY, priority 2021, published 2024).

Key:
EGFR del19 = EGFR del19 (Homo sapiens (Human), UniProt P00533, DEL746-750); assay: HTRF inhibitory activity against EGFR mutant enzyme (EGFR del19); assay type: biochemical; conditions: recombinant enzyme, 37° C. for 2 hours
Sequence of EGFR del19 (P00533 other isoform, or with tags, fused parts or gaps del 1-668/del 746-750 limits assumed): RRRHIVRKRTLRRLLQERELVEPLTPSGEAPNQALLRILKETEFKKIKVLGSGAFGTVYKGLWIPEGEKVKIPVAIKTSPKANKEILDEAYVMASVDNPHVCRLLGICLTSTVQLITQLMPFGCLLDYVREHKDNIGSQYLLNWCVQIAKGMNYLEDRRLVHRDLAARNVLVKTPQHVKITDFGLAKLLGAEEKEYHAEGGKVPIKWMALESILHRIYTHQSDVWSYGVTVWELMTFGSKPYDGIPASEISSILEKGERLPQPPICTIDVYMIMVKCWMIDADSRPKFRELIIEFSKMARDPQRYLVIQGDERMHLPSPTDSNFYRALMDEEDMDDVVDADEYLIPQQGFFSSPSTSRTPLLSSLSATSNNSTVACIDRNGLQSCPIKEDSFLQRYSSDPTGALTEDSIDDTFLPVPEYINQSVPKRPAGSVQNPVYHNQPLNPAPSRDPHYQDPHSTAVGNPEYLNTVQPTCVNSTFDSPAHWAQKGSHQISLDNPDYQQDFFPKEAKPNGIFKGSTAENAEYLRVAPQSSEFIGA
Experimental: (§1) The activity of the compounds of the present invention against EGFR mutant enzymes was measured using the HTRF system purchased from Cisbio as follows. For an EGFR mutant enzyme, the EGFR del19 enzyme was a recombinant protein purchased from Carna Biosciences, and the EGFR A763_Y764insFHEA enzyme was a recombinant protein purchased from SignalChem, respectively.
(§2) The composition of the assay buffer used for activity measurement was 50 mM tris-HCl pH 7.5, 100 mM NaCl, 7.5 mM MgCl2, 3 mM KCl, 0.01% tween 20, 0.1% BSA, and 1 mM DTT. An enzymatic reaction was performed using a peptide substrate labeled with ATP at a concentration of […] and biotin at a concentration of […]. The analysis of the inhibitory effect of the compounds on EGFR activity was performed according to the following method. • Component 1:4 μL of EGFR mutant enzyme • Component 2:2 μL of compound solution • Component 3:4 μL of ATP and a biotin labeled peptide
(§3) The enzyme reaction begins by first mixing component 1 and component 2 and then adding component 3 thereto. After the reaction at 37° C. for 2 hours, […] of a measurement solution consisting of streptavidin-XL665 and a europium-labeled anti-phosphotyrosine antibody purchased from Cisbio was added to the enzyme reaction solution and reacted at room temperature for 1 hour. Finally, the ratio of fluorescence values at 615 nm and 665 nm was measured using Perkin-Elmer's Envision instrument to calculate enzyme activity and confirm the inhibitory ability of the compounds. The measured values at 7 compound concentrations were analyzed using the Prism program (version 5.01, Graphpad Software, Inc.), and the IC50 (μM) values, which are measures of the compounds' inhibitory activity, were calculated.

EGFR A763_Y764insFHEA = EGFR A763_Y764insFHEA (Homo sapiens (Human), UniProt P00533, INS763FHEA); assay: HTRF inhibitory activity against EGFR mutant enzyme (EGFR A763_Y764insFHEA); assay type: biochemical; conditions: recombinant enzyme, 37° C. for 2 hours
Sequence of EGFR A763_Y764insFHEA (P00533 other isoform, or with tags, fused parts or gaps del 1-694/ins FHEA behind 763 limits assumed): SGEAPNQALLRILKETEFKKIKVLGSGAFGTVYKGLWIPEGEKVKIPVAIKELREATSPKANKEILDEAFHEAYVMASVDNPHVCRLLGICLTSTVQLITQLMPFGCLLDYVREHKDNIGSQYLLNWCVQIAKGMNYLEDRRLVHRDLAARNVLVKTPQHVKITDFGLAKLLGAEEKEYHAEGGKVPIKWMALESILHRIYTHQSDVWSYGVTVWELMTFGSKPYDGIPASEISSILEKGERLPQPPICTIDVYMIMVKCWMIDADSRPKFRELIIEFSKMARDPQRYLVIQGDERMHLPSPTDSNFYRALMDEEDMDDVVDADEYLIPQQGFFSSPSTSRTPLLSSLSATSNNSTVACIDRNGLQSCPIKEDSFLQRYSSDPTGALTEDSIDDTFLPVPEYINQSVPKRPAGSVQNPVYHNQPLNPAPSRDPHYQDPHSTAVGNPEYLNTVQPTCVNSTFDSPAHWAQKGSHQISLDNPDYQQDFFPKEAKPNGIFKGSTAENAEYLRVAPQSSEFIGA
Experimental: as §1, §2, §3

[1] = tested on: Ba/F3 HER2 A775_G776insYVMA; assay: Growth inhibition of Ba/F3 HER2 mutant cells (CellTiter-Glo); assay type: cell-based; conditions: Mus musculus, BaF3, 72 hours
Experimental: The activity of the compounds of the present invention against Ba/F3 HER2 A775_G776insYVMA and Ba/F3 HER2 G776delinsVC mutant cell lines was measured using the CellTiter-Glo system purchased from Promega as follows. CellTiter-Glo assay is a method to measure cell viability by monitoring ATP present in cells. Ba/F3 HER2 A775_G776insYVMA and Ba/F3 HER2 G776delinsVC mutant cell lines were purchased from Crown Biosciences. Ba/F3 HER2 A775_G776insYVMA and Ba/F3 HER2 G776delinsVC mutant cell lines were cultured in RPMI containing 10% FBS and 1% penicillin-streptomycin with 1 μg/mL of puromycin in a CO2 incubator at 37° C.
(§4) The analysis of the ability of the compounds to inhibit the growth of HER2 mutant cells was performed according to the following method. 1,000 cells/100 μL were seeded in a 96-well cell culture plate, and 24 hours thereafter, the compounds represented by Formula 1 were treated with 0 μM, 0.01 μM, 0.03 μM, 0.1 μM, 0.3 μM, 1 μM, 3 μM, and 10 μM. After reacting for 72 hours, the plate treated with the compounds were left at room temperature for 30 minutes, 100 μL of a reagent was added thereto, and then shaken at room temperature for 10 minutes. Finally, using equipment, the ratio of […] was measured to confirm the cell growth inhibition ability of the compounds. The measured values at 8 compound concentrations were analyzed using the Prism program (version 5.01, Graphpad Software, Inc.), and the IC50 (μM) values, which are measures of the compounds' inhibitory ability, were calculated.

HER2 A775_G776insYVMA = HER2 A775_G776insYVMA (Homo sapiens (Human), UniProt P04626, INS775YVMA); assay: HTRF inhibitory activity against HER2 mutant enzyme; assay type: biochemical; conditions: recombinant enzyme, 37° C. for 2 hours
Sequence of HER2 A775_G776insYVMA (P04626 other isoform, or with tags, fused parts or gaps del 1-675/ins YVMA behind 775 limits assumed): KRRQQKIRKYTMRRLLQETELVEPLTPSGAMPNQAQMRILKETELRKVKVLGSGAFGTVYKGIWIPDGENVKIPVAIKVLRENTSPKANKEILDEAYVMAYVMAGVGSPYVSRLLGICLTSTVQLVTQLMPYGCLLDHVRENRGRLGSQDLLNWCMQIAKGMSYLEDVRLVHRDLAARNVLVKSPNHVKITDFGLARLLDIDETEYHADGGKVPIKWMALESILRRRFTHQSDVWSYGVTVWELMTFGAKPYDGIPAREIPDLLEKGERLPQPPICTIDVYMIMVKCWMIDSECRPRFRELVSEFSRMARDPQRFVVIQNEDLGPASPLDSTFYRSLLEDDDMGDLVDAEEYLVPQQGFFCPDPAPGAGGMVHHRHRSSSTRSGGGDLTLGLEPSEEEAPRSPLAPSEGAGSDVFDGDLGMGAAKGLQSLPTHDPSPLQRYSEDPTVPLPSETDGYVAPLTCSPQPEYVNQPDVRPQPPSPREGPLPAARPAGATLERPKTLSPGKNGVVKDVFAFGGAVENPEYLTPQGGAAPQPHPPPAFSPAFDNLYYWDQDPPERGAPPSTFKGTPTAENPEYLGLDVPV
Experimental: The activity of the compounds of the present invention against HER mutant enzymes was measured using the HTRF system purchased by Cisbio as follows. As a HER2 mutant enzyme, the HER2 A775_G776insYVMA mutant enzyme was used by purchasing a recombinant protein provided by Carna Biosciences.
as §2, with “mM DTT. In addition thereto, the enzymatic reaction” for “mM DTT. An enzymatic reaction”, “of the activity inhibitory effect” for “of the inhibitory effect”, “compounds on HER2 A775_G776insYVMA mutation was performed” for “compounds on EGFR activity was performed”, “μL of HER2 A775_G776insYVMA mutant enzyme” for “μL of EGFR mutant enzyme”
as §3, with “Finally, the ratio of fluorescence values at 615 nm and 665 nm was measured using Perkin-Elmer's Envision instrument to calculate enzyme activity and confirm the inhibitory ability of the compounds.” left out, “ability,” for “activity,”

[2] = tested on: Ba/F3 EGFR D770_N771insSVD; assay: Growth inhibition of Ba/F3 EGFR mutant cells (CellTiter-Glo); assay type: cell-based; conditions: Ba/F3 EGFR-D770-N771ins_SVD, 72 hours
Experimental: (§5) The activity of the compounds of the present invention against Ba/F3 EGFR V769_D770insASV and Ba/F3 EGFR D770_N771insSVD mutant cell lines was measured using the CellTiter-Glo system purchased from Promega as follows. CellTiter-Glo assay is a method to measure cell viability by monitoring ATP present in cells. Ba/F3 EGFR V769_D770insASV and Ba/F3 EGFR D770_N771insSVD mutant cell lines were purchased from Crown Biosciences. Ba/F3 EGFR V769_D770insASV and Ba/F3 EGFR D770_N771insSVD mutant cell lines were cultured in RPMI containing 10% FBS and 1% penicillin-streptomycin with 1 μg/mL of puromycin in a 5% CO2 incubator at 37° C.
as §4, with “growth of EGFR mutant cells” for “growth of HER2 mutant cells”, “μM. After incubating for 72” for “μM. After reacting for 72”, “reagent was further added thereto,” for “reagent was added thereto,”

[3] = tested on: Ba/F3 EGFR V769_D770insASV; assay: as above; assay type: cell-based; conditions: 72 hours
Experimental: as §5
as §4, with “growth of EGFR mutant cells” for “growth of HER2 mutant cells”, “μM. After incubating for 72” for “μM. After reacting for 72”, “reagent was further added thereto,” for “reagent was added thereto,”

IC50 (EGFR del19) [nM]	IC50 (EGFR A763_Y764insFHEA) [nM]	IC50 [1] [nM]	IC50 (HER2 A775_G776insYVMA) [nM]	IC50 [2] [nM]	IC50 [3] [nM]	SMILES
< 1	4	30 to 50	140	–	–	C=CC(=O)Nc1cc(Nc2ncc(Cl)c(Nc3ccccc3NS(=O)(=O)CCC)n2)c(OC)cc1N(C)CCN(C)C [Example 1, N-(5-((5-chloro-4-((2-(propylsulfonamido)phenyl)amino)pyrimidin-2-yl)amino)-2-((2-(dimethylamino)ethyl)(methyl)amino)-4-methoxyphenyl)acrylamide]
< 1	< 1	–	1	< 10	10 to 30	C=CC(=O)Nc1cc(Nc2ncc(Cl)c(Nc3cccc4c3N(S(C)(=O)=O)CC4)n2)c(OC)cc1N(C)CCN1CCCCC1 [Example 72, N-(5-((5-chloro-4-((1-(methylsulfonyl)indolin-7-yl)amino)pyrimidin-2-yl)amino)-4-methoxy-2-(methyl(2-(piperidin-1-yl)ethyl)amino)phenyl)acrylamide]
< 1	< 1	–	1	< 10	10 to 30	C=CC(=O)Nc1cc(Nc2ncc(Cl)c(Nc3cccc4c3N(S(C)(=O)=O)CC4)n2)c(OC)cc1OCCN1CCCC1 [Example 79, N-(5-((5-chloro-4-((1-(methylsulfonyl)indolin-7-yl)amino)pyrimidin-2-yl)amino)-4-methoxy-2-(2-(pyrrolidin-1-yl)ethoxy)phenyl)acrylamide]
7	20	30 to 50	1200	–	–	C=CC(=O)Nc1cc(Nc2nccc(Nc3ccccc3NS(=O)(=O)c3ccccc3)n2)c(OC)cc1N(C)CCN(C)C [Example 6, N-(2-((2-(dimethylamino)ethyl)(methyl)amino)-4-methoxy-5-((4-((2-(phenylsulfonamido)phenyl)amino)pyrimidin-2-yl)amino)phenyl)acrylamide]
< 1	< 1	30 to 50	34	–	–	C=CC(=O)Nc1cc(Nc2ncc(Cl)c(Nc3ccccc3NS(=O)(=O)C(C)C)n2)c(OC)cc1N(C)CCN(C)C [Example 5, N-(5-((5-chloro-4-((2-((1-methylethyl)sulfonamido)phenyl)amino)pyrimidin-2-yl)amino)-2-((2-(dimethylamino)ethyl)(methyl)amino)-4-methoxyphenyl)acrylamide]
< 1	2	> 100	51	–	> 100	C=CC(=O)Nc1cc(Nc2ncc(C)c(Nc3ccccc3NS(C)(=O)=O)n2)c(OC)cc1N(C)CCN(C)C [Example 16, N-(2-((2-(dimethylamino)ethyl)(methyl)amino)-4-methoxy-5-((5-methyl-4-((2-(methylsulfonamido)phenyl)amino)pyrimidin-2-yl)amino)phenyl)acrylamide]
< 1	5	30 to 50	280	–	–	C=CC(=O)Nc1cc(Nc2nccc(Nc3ccccc3NS(C)(=O)=O)n2)c(OC)cc1N(C)CCN(C)C [Example 7, N-(2-((2-(dimethylamino)ethyl)(methyl)amino)-4-methoxy-5-((4-((2-(methylsulfonamido)phenyl)amino)pyrimidin-2-yl)amino)phenyl)acrylamide]
< 1	2	30 to 50	450	–	–	C=CC(=O)Nc1cc(Nc2ncc(Cl)c(Nc3ccccc3NS(=O)(=O)c3ccc(C)cc3)n2)c(OC)cc1N(C)CCN(C)C [Example 3, N-(5-((5-chloro-4-((2-((4-methylphenyl)sulfonamido)phenyl)amino)pyrimidin-2-yl)amino)-2-((2-(dimethylamino)ethyl)(methyl)amino)-4-methoxyphenyl)acrylamide]
< 1	3	30 to 50	310	–	–	C=CC(=O)Nc1cc(Nc2ncc(Cl)c(Nc3ccccc3NS(=O)(=O)c3ccccc3)n2)c(OC)cc1N(C)CCN(C)C [Example 2, N-(5-((5-chloro-4-((2-(phenylsulfonamido)phenyl)amino)pyrimidin-2-yl)amino)-2-((2-(dimethylamino)ethyl)(methyl)amino)-4-methoxyphenyl)acrylamide]
< 1	1	> 100	71	–	> 100	C=CC(=O)Nc1cc(Nc2ncc(F)c(Nc3ccccc3NS(C)(=O)=O)n2)c(OC)cc1N(C)CCN(C)C [Example 11, N-(2-((2-(dimethylamino)ethyl)(methyl)amino)-5-((5-fluoro-4-((2-(methylsulfonamido)phenyl)amino)pyrimidin-2-yl)amino)-4-methoxyphenyl)acrylamide]
1	3	30 to 50	46	–	–	C=CC(=O)Nc1cc(Nc2ncc(Cl)c(Nc3ccccc3NS(C)(=O)=O)n2)c(OC)cc1N(C)CCN1CCCC1 [Example 21, N-(5-((5-chloro-4-((2-(methylsulfonamido)phenyl)amino)pyrimidin-2-yl)amino)-4-methoxy-2-(methyl(2-(pyrrolidin-1-yl)ethyl)amino)phenyl)acrylamide]
